pKi: −log10 of the molar value.
How the values were obtained:
[1] = target: T1, recombinant human ALK5 (TGF-βR1) protein (Homo sapiens, UniProt P36897); experiment: Biochemical ALK5 (TGF-βR1) assay to measure pKi (LANCE Ultra ULight kinase assay); conditions: apparent pKi, converted from pIC50 using the Cheng-Prusoff equation
T1 construct: purchased Life Technologies PR9075A
T1 sequence (P36897 34-503): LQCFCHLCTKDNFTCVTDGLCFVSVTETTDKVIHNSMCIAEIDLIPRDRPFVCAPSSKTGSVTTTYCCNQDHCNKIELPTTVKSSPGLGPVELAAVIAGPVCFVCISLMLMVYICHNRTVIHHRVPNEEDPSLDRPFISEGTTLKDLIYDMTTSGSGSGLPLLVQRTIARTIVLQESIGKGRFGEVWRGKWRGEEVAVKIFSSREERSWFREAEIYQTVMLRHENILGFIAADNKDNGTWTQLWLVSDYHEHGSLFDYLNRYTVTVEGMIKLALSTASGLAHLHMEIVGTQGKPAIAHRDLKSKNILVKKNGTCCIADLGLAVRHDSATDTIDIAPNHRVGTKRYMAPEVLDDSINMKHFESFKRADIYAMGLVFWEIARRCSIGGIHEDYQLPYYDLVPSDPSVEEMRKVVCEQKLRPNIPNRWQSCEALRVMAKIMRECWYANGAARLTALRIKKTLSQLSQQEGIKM
Outline: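 TR-FRET kinase format: compound dose range 10 μM–25 pM equilibrated 60 min with human ALK5 and ULight-labelled topoisomerase 2α peptide in HEPES/MgCl2 buffer pH 7.5 with DTT. Reaction started with ATP (125 μM stock, 5× final), 60 min at 37° C, stopped with EDTA/Eu-anti-phospho antibody; pKi derived from pIC50 via Cheng-Prusoff.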

[2] = tested on: TGF-β-stimulated SMAD3 phosphorylation in BEAS-2B cells; experiment: Cellular ALK5 potency assay, inhibition of TGF-β stimulated pSMAD3 formation in BEAS-2B cells; format: cell-based; conditions: Homo sapiens, inhibition of TGF-β (10 ng/mL) stimulated pSMAD3 formation, 1 hour compound incubation, read-out: BEAS2B pIC50 (converted)
Outline: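 Phospho-SMAD3 was quantified by AlphaLISA in lysates of human lung epithelial BEAS-2B cells. Compound was added 1 h (37 °C, HEPES/BSA-supplemented HBSS) before a 30 min challenge with 10 ng/mL TGF-β. Values are pIC50 relative to stimulated cells without compound.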

Compound CNC1CCN(c2cnc3ccc(-c4c[nH]nc4-c4cc(Cl)c(F)cc4F)nc3c2)C1 (stereo not drawn) [Compound 6-35, 1-[6-[3-(5-chloro-2,4-difluoro-phenyl)-1H-pyrazol-4-yl]-1,5-naphthyridin-3-yl]-N-methyl-pyrrolidin-3-amine] has a pKi [1] of at least 10.50 and an IC50 [2] of at most 20 nM.

Fc1ccc(Cl)cc1-c1nc2ccccn2c1-c1ccc2ncc(-c3nnn4c3CNCC4)cc2n1 [Compound 3-6, 2-(2-(5-chloro-2-fluorophenyl)imidazo[1,2-a]pyridin-3-yl)-7-(4,5,6,7-tetrahydro-[1,2,3]triazolo[1,5-a]pyrazin-3-yl)-1,5-naphthyridine] was tested, and the pKi [1] was 9.50 to 10.40 and the IC50 [2] was 25.1 to 158 nM.

CNCCn1cc(-c2cnc3ccc(-c4c[nH]nc4-c4cc(O)ccc4C)nc3c2)cn1 [Compound 13-1, 4-methyl-3-(4-(7-(1-(2-(methylamino)ethyl)-1H-pyrazol-4-yl)-1,5-naphthyridin-2-yl)-1H-pyrazol-3-yl)phenol] gave a pKi [1] of 8.50 to 9.40 and an IC50 [2] of 200 to 1260 nM.

Fc1cc(F)c(-c2n[nH]cc2-c2ccc3ncc(-c4nc(C(F)(F)F)n5c4CNCC5)cc3n2)cc1Cl [Compound 6-50, 2-[3-(5-chloro-2,4-difluoro-phenyl)-1H-pyrazol-4-yl]-7-[3-(trifluoromethyl)-5,6,7,8-tetrahydroimidazo[1,5-a]pyrazin-1-yl]-1,5-naphthyridine] gave a pKi [1] of 7.50 to 8.40 and an IC50 [2] of 25.1 to 158 nM.

CC1(C)CCCN1CCNc1cnc2ccc(-c3nc[nH]c3-c3cc(Cl)ccc3F)nc2c1 [Compound 2-3, 6-[5-(5-chloro-2-fluoro-phenyl)-1H-imidazol-4-yl]-N-[2-(2,2-dimethylpyrrolidin-1-yl)ethyl]-1,5-naphthyridin-3-amine] gave a pKi [1] of 9.50 to 10.40 and an IC50 [2] of 25.1 to 158 nM.

Compound COC(=O)c1cnc2ccc(-c3c(-c4cc(Cl)ccc4F)nnn3Cc3ccccc3)nc2c1 [Compound 4-2, methyl 6-[3-benzyl-5-(5-chloro-2-fluoro-phenyl)triazol-4-yl]-1,5-naphthyridine-3-carboxylate] has a pKi [1] of 7.50 to 8.40 and an IC50 [2] of 200 to 1260 nM.

With COCc1cccc(-c2n[nH]cc2-c2ccc3ncc(N4CCC(N(C)C)C4)cc3n2)c1 (racemic) [Compound 14-4, rac-(3S)-1-[6-[3-[3-(methoxymethyl)phenyl]-1H-pyrazol-4-yl]-1,5-naphthyridin-3-yl]-N,N-dimethyl-pyrrolidin-3-amine] the pKi [1] was 7.50 to 8.40 and the IC50 [2] was 25.1 to 158 nM.

CNCC1CN(c2cnc3ccc(-c4c[nH]nc4-c4cc(Cl)c(F)cc4F)nc3c2)C1 [Compound 6-29, 1-[1-[6-[3-(5-chloro-2,4-difluoro-phenyl)-1H-pyrazol-4-yl]-1,5-naphthyridin-3-yl]azetidin-3-yl]-N-methyl-methanamine] was tested, and the pKi [1] was at least 10.50 and the IC50 [2] was at most 20 nM.

For Fc1cc(F)c(-c2n[nH]cc2-c2ccc3ncc(N4CCC(N5CCCCC5)C4)cc3n2)cc1Cl (racemic) [Compound 6-21, 2-[3-(5-chloro-2,4-difluoro-phenyl)-1H-pyrazol-4-yl]-7-[rac-(3R)-3-(1-piperidyl)pyrrolidin-1-yl]-1,5-naphthyridine], the pKi [1] was 9.50 to 10.40 and the IC50 [2] was 25.1 to 158 nM.

With Fc1ccc(Cl)cc1-c1n[nH]cc1-c1ccc2ncc(N3CCC(N4CCCC4)CC3)cc2n1 [Compound 1-44, 2-[3-(5-chloro-2-fluoro-phenyl)-1H-pyrazol-4-yl]-7-(4-pyrrolidin-1-yl-1-piperidyl)-1,5-naphthyridine] the pKi [1] was 9.50 to 10.40 and the IC50 [2] was 25.1 to 158 nM.

COC(=O)CC1CN(c2cnc3ccc(-c4c[nH]nc4-c4cc(Cl)ccc4F)nc3c2)CCN1 (stereo not drawn) [Compound 1-136, methyl 2-[4-[6-[3-(5-chloro-2-fluoro-phenyl)-1H-pyrazol-4-yl]-1,5-naphthyridin-3-yl]piperazin-2-yl]acetate] showed a pKi [1] of 9.50 to 10.40 and an IC50 [2] of at most 20 nM.

In the case of CC(C)N1CCN(c2ccc(Nc3cnc4ccc(-c5c[nH]nc5-c5cc(Cl)ccc5F)nc4c3)nc2)CC1 [Compound 1-30, 6-(3-(5-chloro-2-fluorophenyl)-1H-pyrazol-4-yl)-N-(5-(4-isopropylpiperazin-1-yl)pyridin-2-yl)-1,5-naphthyridin-3-amine], the pKi [1] was 9.50 to 10.40 and the IC50 [2] was 25.1 to 158 nM.

N[C@@H]1CCCC[C@H]1n1cc(-c2cnc3ccc(-c4nc[nH]c4-c4ccc(F)c(F)c4)cc3c2)cn1 [Compound 23-3, (1R,2R)-2-(4-(6-(5-(3,4-difluorophenyl)-1H-imidazol-4-yl)quinolin-3-yl)-1H-pyrazol-1-yl)cyclohexan-1-amine] was tested, and the pKi [1] was 9.50 to 10.40 and the IC50 [2] was 25.1 to 158 nM.

Compound Fc1cc(F)c(-c2n[nH]cc2-c2ccc3ncc(-c4cnc5n4CCNC5)cc3n2)cc1Cl [Compound 6-48, 2-[3-(5-chloro-2,4-difluoro-phenyl)-1H-pyrazol-4-yl]-7-(5,6,7,8-tetrahydroimidazo[1,2-a]pyrazin-3-yl)-1,5-naphthyridine] has a pKi [1] of 8.50 to 9.40 and an IC50 [2] of 25.1 to 158 nM.

Fc1ccc(-c2n[nH]cc2-c2ccc3ncc(-c4cn[nH]c4)cc3n2)cc1F [Compound 8-13, 2-[3-(3,4-difluorophenyl)-1H-pyrazol-4-yl]-7-(1H-pyrazol-4-yl)-1,5-naphthyridine] was tested, and the pKi [1] was 8.50 to 9.40 and the IC50 [2] was at most 20 nM.

With CC(C)N1CCN(CCNc2cnc3ccc(-c4nc[nH]c4-c4ccc(F)c(F)c4)cc3c2)CC1 [Compound 23-4, 6-(5-(3,4-difluorophenyl)-1H-imidazol-4-yl)-N-(2-(4-isopropylpiperazin-1-yl)ethyl)quinolin-3-amine] the pKi [1] was 7.50 to 8.40 and the IC50 [2] was 25.1 to 158 nM.

Compound CN(CCN1CCNCC1)c1cnc2ccc(-c3c[nH]nc3-c3cc(Cl)c(F)cc3F)nc2c1 [Compound 6-24, 6-[3-(5-chloro-2,4-difluoro-phenyl)-1H-pyrazol-4-yl]-N-methyl-N-(2-piperazin-1-ylethyl)-1,5-naphthyridin-3-amine] has a pKi [1] of 8.50 to 9.40 and an IC50 [2] of 25.1 to 158 nM.

NCCN1CCN(c2cnc3ccc(-c4c[nH]nc4-c4cc(Cl)ccc4F)nc3c2)CC1 [Compound 1-57, 2-[4-[6-[3-(5-chloro-2-fluoro-phenyl)-1H-pyrazol-4-yl]-1,5-naphthyridin-3-yl]piperazin-1-yl]ethanamine] gave a pKi [1] of 9.50 to 10.40 and an IC50 [2] of 25.1 to 158 nM.

With CC(C)NCCN1CCN(c2cnc3ccc(-c4c[nH]nc4-c4cc(Cl)ccc4F)nc3c2)CC1 [Compound 1-76, N-[2-[4-[6-[3-(5-chloro-2-fluoro-phenyl)-1H-pyrazol-4-yl]-1,5-naphthyridin-3-yl]piperazin-1-yl]ethyl]propan-2-amine] the pKi [1] was at least 10.50 and the IC50 [2] was 25.1 to 158 nM.

Fc1ccc(-c2n[nH]cc2-c2ccc3ncc(N4CCC(N5CCCC5)CC4)cc3n2)cc1F [Compound 8-11, 2-[3-(3,4-difluorophenyl)-1H-pyrazol-4-yl]-7-(4-pyrrolidin-1-yl-1-piperidyl)-1,5-naphthyridine] was tested, and the pKi [1] was 8.50 to 9.40 and the IC50 [2] was 25.1 to 158 nM.

NCCn1cc(-c2cnc3ccc(-c4c[nH]nc4-c4cc(Cl)c(F)cc4F)nc3c2)cn1 [Compound 6-41, 2-[4-[6-[3-(5-chloro-2,4-difluoro-phenyl)-1H-pyrazol-4-yl]-1,5-naphthyridin-3-yl]pyrazol-1-yl]ethanamine] gave a pKi [1] of at least 10.50 and an IC50 [2] of 25.1 to 158 nM.

Work on COCc1cccc(-c2n[nH]cc2-c2ccc3ncc(N4CCNCC4)cc3n2)c1 [Compound 14-16, 2-[3-[3-(methoxymethyl)phenyl]-1H-pyrazol-4-yl]-7-piperazin-1-yl-1,5-naphthyridine] yielded a pKi [1] of 7.50 to 8.40 and an IC50 [2] of 200 to 1260 nM.

With Fc1cc(F)c(-c2n[nH]cc2-c2ccc3ncc(N4CC(N5CCCCC5)C4)cc3n2)cc1Cl [Compound 6-14, 2-(3-(5-chloro-2,4-difluorophenyl)-1H-pyrazol-4-yl)-7-(3-(piperidin-1-yl)azetidin-1-yl)-1,5-naphthyridine] the pKi [1] was 9.50 to 10.40 and the IC50 [2] was 25.1 to 158 nM.

In the case of Fc1ccc(Cl)cc1-c1[nH]nnc1-c1ccc2ncc(-c3cn[nH]c3)cc2c1 [Compound 18-2, 6-[5-(5-chloro-2-fluoro-phenyl)-1H-triazol-4-yl]-3-(1H-pyrazol-4-yl)quinoline], the pKi [1] was 9.50 to 10.40 and the IC50 [2] was at most 20 nM.

For Fc1ccc(Cl)cc1-c1[nH]cnc1-c1ccc2ncc(Nc3ccc(N4CCNCC4)cn3)cc2n1 [Compound 2-4, 6-[5-(5-chloro-2-fluoro-phenyl)-1H-imidazol-4-yl]-N-(5-piperazin-1-yl-2-pyridyl)-1,5-naphthyridin-3-amine], the pKi [1] was 9.50 to 10.40 and the IC50 [2] was 25.1 to 158 nM.

With NC1CC=C(c2cnc3ccc(-c4c[nH]nc4-c4ccc(F)c(F)c4)nc3c2)CC1 (stereo not drawn) [Compound 8-19, 4-[6-[3-(3,4-difluorophenyl)-1H-pyrazol-4-yl]-1,5-naphthyridin-3-yl]cyclohex-3-en-1-amine] the pKi [1] was 9.50 to 10.40 and the IC50 [2] was at most 20 nM.

CN1CCN(C2CCN(c3cnc4ccc(-c5c(-c6cc(Cl)ccc6F)nc6ccccn56)nc4c3)CC2)CC1 [Compound 3-5, 2-[2-(5-chloro-2-fluoro-phenyl)imidazo[1,2-a]pyridin-3-yl]-7-[4-(4-methylpiperazin-1-yl)-1-piperidyl]-1,5-naphthyridine] gave a pKi [1] of 9.50 to 10.40 and an IC50 [2] of 200 to 1260 nM.
